Our source for the IC50 values is US9718790B2, “Triazine derivative and pharmaceutical composition having an analgesic activity comprising the same” (SHIONOGI & CO., LTD., priority 2010, dated 2017).

For one experiment, the target named is human P2X3 receptor (Homo sapiens (Human), UniProt P56373). Kind of experiment: Evaluation of human P2X3 receptor inhibitory activity (Fluo-3 calcium fluorescence, FDSS 3000, ATP stimulation).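 Also: stimulus was 50 nM ATP with fluorescence followed for 3 min, and the response per well was peak post-ATP fluorescence divided by the reading at measurement start.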 It is filed as cell-based. To be noted: C6BU-1 cells stably expressing human P2X3 receptor.
human P2X3 receptor, sequence (P56373 whole entry): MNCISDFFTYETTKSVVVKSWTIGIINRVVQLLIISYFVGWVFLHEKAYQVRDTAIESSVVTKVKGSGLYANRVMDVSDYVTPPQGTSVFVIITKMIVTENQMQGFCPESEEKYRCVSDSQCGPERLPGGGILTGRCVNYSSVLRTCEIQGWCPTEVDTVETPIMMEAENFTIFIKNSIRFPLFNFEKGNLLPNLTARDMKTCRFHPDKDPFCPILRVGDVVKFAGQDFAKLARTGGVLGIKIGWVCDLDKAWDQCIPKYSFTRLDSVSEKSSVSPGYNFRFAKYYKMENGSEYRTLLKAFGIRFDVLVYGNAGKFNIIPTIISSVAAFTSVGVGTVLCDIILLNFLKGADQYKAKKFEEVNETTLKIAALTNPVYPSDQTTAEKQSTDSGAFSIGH
Broadly, the IC50 is the concentration needed to halve the response being measured. For `Cc1ccc(Cn2c(=O)n(C)c(=O)[nH]/c2=N\c2ccc(Oc3cccc(C(=O)O)c3)cc2)cc1` [Compound I-2060], the IC50 came to 22 nM.
On the same count and under the same terms, as for `Cc1ccc(Cn2c(=O)n([C@@H](C)[C@@H](C)C(=O)O)c(=O)[nH]/c2=N\c2ccc(OC(C)C)c(Br)c2)cc1` [Compound I-1334], the figure is 11 nM.
With `COC(=O)c1ccc(Oc2ccc(/N=c3\[nH]c(=O)n(C)c(=O)n3Cc3ccc(C)cc3)cc2)cc1` [Compound I-2030], the IC50 was 6 nM.
Still for that read-out and setting: in the case of `Cc1ccc(Cn2c(=O)n(CC3(C(=O)O)CC3)c(=O)[nH]/c2=N\c2ccc(CC(C)C)c(Cl)c2)cc1` [Compound I-1451] it was 5 nM; in that of `CCCCOc1ccc(/N=c2\[nH]c(=O)n(C[C@H](C)C(=O)O)c(=O)n2Cc2ccc(Cl)cc2)cc1` [Compound I-0819], 22 nM.
As to `CCOC(=O)CCn1c(=O)[nH]/c(=N\c2ccc(OC(C)C)c(Cl)c2)n(CC2CCC3(CC2)CC3)c1=O` [Compound I-1449], the IC50 amounted to 4 nM.
The same measure, in the same setting: as for `CC(C)Oc1ccc(/N=c2\[nH]c(=O)n(Cc3cc[nH]c(=O)c3)c(=O)n2Cc2ccc(Cl)cc2)cc1F` [Compound I-0650], the figure is 20 nM; as for `Cc1cc(/N=c2\[nH]c(=O)n(C[C@H](C)CC(=O)O)c(=O)n2Cc2ccc(Cl)cc2)ccc1OC(C)C` [Compound I-0765], 40 nM.
The same measure, in the same setting: as for `CC(C)Oc1ccc(/N=c2\[nH]c(=O)n(CCCS(=O)(=O)O)c(=O)n2Cc2ccc(Cl)cc2)cc1F` [Compound I-0645], the figure is 102 nM; as for `CC(C)Oc1ccc(/N=c2\[nH]c(=O)n(CC(=O)NO)c(=O)n2Cc2ccc(Cl)cc2)cc1F` [Compound I-0636], 10 nM.
Turning to `CC(C)Oc1ccc(/N=c2\[nH]c(=O)n(Cc3noc(=O)[nH]3)c(=O)n2Cc2ccc(Cl)cc2)cc1F` [Compound I-0601], the IC50 was found to be 31 nM.
Consider `CCn1c(=O)[nH]/c(=N\c2ccc(Oc3ccnc(C(=O)OC)c3)cc2)n(Cc2ccc(Cl)cn2)c1=O` [Compound I-2186], for which the IC50 worked out at 104 nM.
For `CNC(=O)C1(Cn2c(=O)[nH]/c(=N\c3ccc(OC(C)C)c(C)c3)n(Cc3ccc(Cl)cc3)c2=O)CC1` [Compound I-0703], the IC50 is 15 nM.
Take `Cc1ccc(Cn2c(=O)n(CCC(=O)O)c(=O)[nH]/c2=N\c2ccc(OC(C)C)c(CO)c2)cc1` [Compound I-1429]: the IC50 was found to be 232 nM.
In the case of `CC(C)Oc1ccc(/N=c2\[nH]c(=O)n(C(C)(C)CC(=O)O)c(=O)n2Cc2ccc(Cl)cc2)cc1Cl` [Compound I-0817], the IC50 came out at 27 nM.
Same read-out and setting: as for `NC(=O)Cn1c(=O)[nH]/c(=N\c2ccc(OCC3CC3)cc2)n(Cc2ccc(Cl)cc2)c1=O` [Compound I-1940], the figure is 55 nM; as for `CCn1c(=O)[nH]/c(=N\c2ccc(Oc3nc(O)nc(O)n3)cc2)n(Cc2ccc(Cl)cc2)c1=O` [Compound I-2222], 5 nM.
The same measure, in the same setting: as for `CCCc1ccc(/N=c2\[nH]c(=O)n(CCC(=O)O)c(=O)n2Cc2ccc(Cl)cc2)cc1C` [Compound I-1253], the figure is 281 nM.
As for `CCOC(=O)COc1ccc(/N=c2\[nH]c(=O)n(CC)c(=O)n2Cc2ccc(Cl)cc2)cc1` [Compound I-1989], the IC50 is 619 nM.
Same read-out and setting: as for `Cc1nc2ccc(/N=c3\[nH]c(=O)n(CCC(=O)O)c(=O)n3CC3CCC(C)CC3)cc2s1` (stereo not drawn) [Compound I-1994], the figure is 10 nM; as for `Cc1ccc(Cn2c(=O)n(CCC(=O)O)c(=O)[nH]/c2=N\c2cccc(C(F)(F)F)c2C)cc1` [Compound I-2085], 852 nM.
Same read-out and setting: in the case of `Cc1ccc(Cn2c(=O)[nH]c(=O)[nH]/c2=N\c2ccc(Oc3cncc(C(=O)O)c3)cc2)cc1` [Compound I-2102] it was 34 nM; in that of `COC(=O)[C@@H](C)Cn1c(=O)[nH]/c(=N\c2ccc3nc(C)ccc3c2)n(Cc2ccc(Cl)cc2)c1=O` [Compound I-0790], 13 nM; in that of `Cc1cc(/N=c2\[nH]c(=O)n(CC3(C(=O)NCCO)CC3)c(=O)n2Cc2ccc(Cl)cc2)ccc1OC(C)C` [Compound I-0704], 23 nM.
Consider `NC(=O)CCn1c(=O)[nH]/c(=N\c2ccc(OC3CCC3)cc2)n(Cc2ccc(Cl)cc2)c1=O` [Compound I-1915], for which the IC50 amounted to 23 nM.
On to `COc1cc(/N=c2\[nH]c(=O)n(C[C@H]3COC(C)(C)O3)c(=O)n2Cc2ccc(Cl)cc2)ccc1OC(C)C` [Compound I-2001], for which the IC50 is 5 nM.
As to `CCn1c(=O)[nH]/c(=N\c2ccc(Oc3cccc(CO)c3)cc2)n(Cc2ccc(Cl)cc2)c1=O` [Compound I-2065], the IC50 amounted to 54 nM.
On the same count and under the same terms, in the case of `CCn1c(=O)[nH]/c(=N\c2ccc(Oc3cncc(C(=O)OC)c3)cc2)n(CC2CCC(C)(C)CC2)c1=O` [Compound I-2204] it was 28 nM; in that of `CC(C)Oc1ccc(/N=c2\[nH]c(OCC(=O)NN(C)C)nc(=O)n2Cc2ccc(Cl)cc2)cc1F` [Compound I-0583], 38 nM.

The same experiment, now with this note: C6BU-1 cells stably expressing human P2X3 receptor, Fluo-3 fluorescence, FDSS 3000.
`COC(=O)[C@@H](C)Cn1c(=O)[nH]/c(=N\c2ccc(CN(C)C)c(Cl)c2)n(Cc2ccc(C)cc2)c1=O` [Compound I-1172]: the IC50 was 97 nM.
On the same count and under the same terms, in the case of `CCCOc1ccc(/N=c2\[nH]c(=O)n(C[C@@H](CC)C(=O)O)c(=O)n2Cc2ccc(Cl)cc2)cc1` [Compound I-1039] it was 83 nM.
Same read-out and setting: as for `CCc1nc2ccc(/N=c3\[nH]c(=O)n(CCCC(N)=O)c(=O)n3Cc3ccc(Cl)cc3)cc2s1` [Compound I-1711], the figure is 5 nM; as for `COC(=O)[C@@H](C)Cn1c(=O)[nH]/c(=N\c2ccc(OC(F)F)c(Cl)c2)n(Cc2ccc(C)cc2)c1=O` [Compound I-1022], 14 nM; as for `C[C@@H](C(=O)O)[C@H](C)n1c(=O)[nH]/c(=N\c2ccc3c(c2)CCN3S(C)(=O)=O)n(Cc2ccc(Cl)cc2)c1=O` [Compound I-1774], 255 nM.
The same measure, in the same setting: in the case of `CCn1c(=O)[nH]/c(=N\c2ccc(Oc3ccc(O)nc3)cc2)n(Cc2ccc(Cl)cc2)c1=O` [Compound I-1848] it was 14 nM; in that of `CC(C)=Cc1ccc(/N=c2\[nH]c(=O)n(C[C@H](C)C(=O)O)c(=O)n2Cc2ccc(Cl)cc2)cc1C` [Compound I-0950], 20 nM.
As for `COC(=O)[C@@H](C)Cn1c(=O)[nH]/c(=N\c2ccc(Cl)c(Cl)c2)n(Cc2ccc(C)cc2)c1=O` [Compound I-0998], the IC50 turned out to be 24 nM.
The same measure, in the same setting: as for `O=C(O)C1(Cn2c(=O)[nH]/c(=N\c3ccc(OCC4CC4)cc3)n(Cc3ccc(Cl)cc3)c2=O)CC1` [Compound I-0934], the figure is 57 nM; as for `C[C@@H](Cn1c(=O)[nH]/c(=N\c2ccc(O[C@H](C)C(F)(F)F)cc2)n(Cc2ccc(Cl)cc2)c1=O)C(=O)O` [Compound I-0932], 21 nM; as for `Cc1cc(/N=c2\[nH]c(=O)n(CC(=O)C(=O)O)c(=O)n2Cc2ccc(Cl)cc2)ccc1OC(C)C` [Compound I-1009], 69 nM.

Staying with this experiment, now noted: human P2X3 receptor, Test Example 1.
Regarding `CCOC(=O)C1(Cn2c(=O)[nH]/c(=N\c3ccc4oc(CC)c(C)c4c3)n(Cc3ccc(C)cc3)c2=O)CC1` [Compound I-1546], the IC50 is 7 nM.
Turning to `NC(=O)Cn1c(=O)[nH]/c(=N\c2ccc(Oc3cccc(F)n3)cc2)n(Cc2ccc(Cl)cc2)c1=O` [Compound I-2584], the IC50 amounted to 8 nM.
As to `Cc1ccc(Cn2c(=O)n(CC(F)(F)C(=O)O)c(=O)[nH]/c2=N\c2ccc(OC(C)C)c(C)c2)cc1` [Compound I-0857], the IC50 stood at 19 nM.
The same measure, in the same setting: as for `CCOCc1ccc(/N=c2\[nH]c(=O)n(C[C@H](C)C(=O)OC)c(=O)n2Cc2ccc(C)cc2)cc1Cl` [Compound I-1498], the figure is 22 nM; as for `COC(=O)CCn1c(=O)[nH]/c(=N\c2ccc(Oc3nc(C)ns3)cc2)n(Cc2ccc(Cl)cc2)c1=O` [Compound I-2651], 2 nM.
Same read-out and setting: in the case of `CCc1nc2ccc(/N=c3\[nH]c(=O)n(CCC(=O)O)c(=O)n3Cc3ccc(Cl)cc3)cc2s1` [Compound I-1509] it was 14 nM.
With `CCn1c(=O)[nH]/c(=N\c2ccc(Oc3ccc(C(=O)O)nc3)cc2)n(Cc2ccc(Cl)cn2)c1=O` [Compound I-2278], the IC50 amounted to 136 nM.
Consider `CC(=O)Nc1cc(Oc2ccc(/N=c3\[nH]c(=O)[nH]c(=O)n3Cc3ccc(Cl)cc3)cc2)ccn1` [Compound I-2430], for which the IC50 came to 48 nM.
Still for that read-out and setting: as for `N#CNC(=O)Cn1c(=O)[nH]/c(=N\c2ccc(Oc3ccon3)cc2)n(Cc2ccc(Cl)cc2)c1=O` [Compound I-2604], the figure is 21 nM; as for `CCn1c(=O)[nH]/c(=N\c2ccc(Oc3ccsn3)cc2)n(Cc2ccc(Cl)cc2)c1=O` [Compound I-2286], 5 nM.
Still for that read-out and setting: in the case of `Cc1ccc(Cn2c(=O)n(C[C@H](C)C(=O)O)c(=O)[nH]/c2=N\c2ccc(OC3CC3)cc2)cc1` [Compound I-1516] it was 49 nM; in that of `CCn1c(=O)[nH]/c(=N\c2ccc(Oc3ccc(NCC(N)=O)nc3)cc2)n(Cc2ccc(Cl)cc2)c1=O` [Compound I-2625], 3 nM; in that of `CCn1c(=O)[nH]/c(=N\c2ccc(Oc3ccnc(C(N)=O)n3)cc2)n(Cc2ccc(Cl)cc2)c1=O` [Compound I-2532], 5 nM.
For the molecule `COC(=O)[C@@H](C)Cn1c(=O)[nH]/c(=N\c2ccc(C3CC3)c(C3CC3)c2)n(Cc2ccc(C)cc2)c1=O` [Compound I-1488], the IC50 was 652 nM.
On the same count and under the same terms, in the case of `Cc1ccc(Cn2c(=O)n(C)c(=O)[nH]/c2=N\c2ccc(Oc3nccc(C(=O)O)n3)cc2)cc1` [Compound I-2403] it was 61 nM; in that of `CCn1c(=O)[nH]/c(=N\c2ccc(Oc3cc(C(=O)O)ccn3)cc2)n(Cc2ccc(Cl)cc2)c1=O` [Compound I-2250], 8 nM.
Same read-out and setting: as for `COC(=O)[C@@H](C)Cn1c(=O)[nH]/c(=N\c2ccc(CC(C)(C)O)c(Cl)c2)n(Cc2ccc(C)cc2)c1=O` [Compound I-1527], the figure is 5 nM; as for `C[C@@H](C(N)=O)n1c(=O)[nH]/c(=N\c2ccc(Oc3ccon3)cc2)n(Cc2ccc(Cl)cc2)c1=O` [Compound I-2501], 57 nM; as for `Cn1c(=O)[nH]/c(=N\c2ccc(Oc3ccon3)cc2)n(Cc2ccc(Cl)cc2)c1=O` [Compound I-2356], 24 nM.
The same measure, in the same setting: in the case of `Cc1ccc(Cn2c(=O)n(C)c(=O)[nH]/c2=N\c2ccc(Oc3cccc(/C=C/C(=O)O)c3)cc2)cc1` [Compound I-2363] it was 9 nM.
